Columns and labels:
[1] = target: T1, eIF4G1 binding to eIF4E-cap complex (Homo sapiens, UniProt Q04637); test: Cap-binding assay on m7GTP cap-analog agarose beads; type: cell-based; settings: HEK293T; i14G1-10 20 μM, i14G1-12 10 μM; 4 hours
T1 construct: endogenous in cells; host or cells: HEK293T
Method: FIGS. 2A-C: The effect of i14G1-10 and i14G1-12 on eIF1-eIF4G1 and eIF4E-eIF4G1 complexes. (2A-B) HA-eIF1 and HA-eIF4E were each transfected into HEK293T cells and 48 h after transfection cells were treated with DMSO or i14G1-10 (2A) or i14G1-12 (2B) for 4 h, followed by immunoprecipitation of HA-eIF1 or HA-eIF4E using anti-HA-agarose beads. Western blot was run to check co-immunoprecipitation of endogenous eIF4G1 with HA-eIF1 or HA-eIF4E. The graphs represent the co-immunoprecipitation of eIF4G1 with HA-eIF1 (right) or HA-eIF4E (left). Co—IP data shown as mean±SEM of 4-7 independent experiments. The asterisks denote statistically significant difference compared to DMSO, according to Student's t-tests (one-tailed, paired). *p<0.05. (2C) HEK293T cells were treated with DMSO, i14G1-10, or i14G1-12 for 4 h, followed by cell lysis. Respective cell lysates were incubated with cap analog (γ-Aminohexyl-m7GTP) beads for 2 h to precipitate bound eIF4E. Western blot was performed to check co-precipitation of eIF4G1 along with eIF4E on the cap-analog beads. The graph represents the binding fraction of eIF4G1 and eIF4E to the cap-analog beads (mean±SEM) with DMSO (black), i14G1-10 (blue), and i14G1-12 (red), n=6. The asterisks denote statistically significant difference compared to DMSO, according to Student's t-tests (one-tailed, paired). *p<0.05; **p<0.01.
Cap-binding Assay. […]

HEK293T cells = test: Cell cycle analysis, propidium iodide flow cytometry; type: cell-based, human; settings: i14G1-10 20 uM, 16 hours; for cells in S phase / sub-G1 dead cells: i14G1-12 1 uM
Method: FIGS. 3A-F: i14G1-10 and i14G1-12 inhibit mRNA translation and sensitize cell survival of eIF4G1 and eIF1 depleted cells. (3A) In-vitro translation using rabbit reticulocyte lysate which was pre-incubated with different concentrations of i14G1-10 or i14G1-12 for 10 minutes followed by the addition of capped firefly luciferase mRNA. After 90 minutes at 30° C., the luminescence signal was measured and the IC50 was calculated. The data represents mean±SEM of 6 independent repeats. (3B) HEK293T cells were treated with DMSO (vehicle control), and sub-cytotoxic concentrations of i14G1-10 (20 μM) and i14G1-12 (10 μM) for 3h. Cell lysates were then subjected to sucrose gradient sedimentation to obtain polysome profiles. (3C) HEK293T cells were treated with the indicated concentrations of i14G1-10 and i14G-12 for 3 h, followed by the addition of puromycin (10 μg/ml) for 5 minutes, after which cells were lysed and analyzed by western blot using an anti-puromycin antibody and anti-GAPDH antibody that serves as a loading control. The graph represents the mean±SEM chemiluminescence signal intensity of puromycin labeling normalized to GAPDH of 3 independent experiments. The calculated IC-50 is shown. (3D) HEK293T cells were transfected with either control or eIF4G1 siRNA in the absence or presence of eIF4G1 expression plasmid. As the eIF4G1 siRNA pool is directed against the 3′UTR, which is absent from the eIF4G1 expression plasmid, the exogenous eIF4G1 is resistant to the siRNA. 48 h after transfection, cells were treated with the indicated concentrations of i14G1-10 and i14G-12 for 3 h, followed by a 5 minutes puromycin pulse as described in 3C. The graph represents the mean±SEM chemiluminescence signal intensity of puromycin labeling normalized to GAPDH of 3 independent experiments. The calculated IC-50 is shown. (3E) The graphs represent cell viability of the indicated cell lines in the presence of increasing concentrations of i14G1-10 and i14G1, analyzed by Luminescent Cell Viability Assay. (3F) Pie charts showing the cell cycle distribution of HEK293T cells treated with DMSO, i14G1-10 and i14G1-12.
Cell cycle and cell viability analyses. HEK293T were treated with DMSO, i14G1-10 (20 uM) and i14G1-12 (1 uM) for 16 hours and then were trypsinized, washed twice with ice cold PBS and fixed overnight in 70% ethanol. Then cells were washed twice with ice cold PBS and resuspended in staining buffer (0.1% triton X-100, 2 mg RNase A and […]), and incubated at 37° C. for 15 minutes. Cells were monitored by BC LSRII flow cytometer and data was analyzed using Modfit Lt Software.
This was true in breast cancer (MCF7), lung cancer (A549), colorectal cancer (HCT116), ovarian cancer (OVCAR8) and in a bone cancer sarcoma cell line (U20S). To examine whether the growth defect is associated with cell cycle progression, control and drug treated cells were subjected to DNA staining by propidium iodide and then a flow cytometry analysis to determine their distribution in the sub-G1 (dead cells), G1, S and G2/M phases of the cell cycle.

T1 sequence (Q04637 whole entry): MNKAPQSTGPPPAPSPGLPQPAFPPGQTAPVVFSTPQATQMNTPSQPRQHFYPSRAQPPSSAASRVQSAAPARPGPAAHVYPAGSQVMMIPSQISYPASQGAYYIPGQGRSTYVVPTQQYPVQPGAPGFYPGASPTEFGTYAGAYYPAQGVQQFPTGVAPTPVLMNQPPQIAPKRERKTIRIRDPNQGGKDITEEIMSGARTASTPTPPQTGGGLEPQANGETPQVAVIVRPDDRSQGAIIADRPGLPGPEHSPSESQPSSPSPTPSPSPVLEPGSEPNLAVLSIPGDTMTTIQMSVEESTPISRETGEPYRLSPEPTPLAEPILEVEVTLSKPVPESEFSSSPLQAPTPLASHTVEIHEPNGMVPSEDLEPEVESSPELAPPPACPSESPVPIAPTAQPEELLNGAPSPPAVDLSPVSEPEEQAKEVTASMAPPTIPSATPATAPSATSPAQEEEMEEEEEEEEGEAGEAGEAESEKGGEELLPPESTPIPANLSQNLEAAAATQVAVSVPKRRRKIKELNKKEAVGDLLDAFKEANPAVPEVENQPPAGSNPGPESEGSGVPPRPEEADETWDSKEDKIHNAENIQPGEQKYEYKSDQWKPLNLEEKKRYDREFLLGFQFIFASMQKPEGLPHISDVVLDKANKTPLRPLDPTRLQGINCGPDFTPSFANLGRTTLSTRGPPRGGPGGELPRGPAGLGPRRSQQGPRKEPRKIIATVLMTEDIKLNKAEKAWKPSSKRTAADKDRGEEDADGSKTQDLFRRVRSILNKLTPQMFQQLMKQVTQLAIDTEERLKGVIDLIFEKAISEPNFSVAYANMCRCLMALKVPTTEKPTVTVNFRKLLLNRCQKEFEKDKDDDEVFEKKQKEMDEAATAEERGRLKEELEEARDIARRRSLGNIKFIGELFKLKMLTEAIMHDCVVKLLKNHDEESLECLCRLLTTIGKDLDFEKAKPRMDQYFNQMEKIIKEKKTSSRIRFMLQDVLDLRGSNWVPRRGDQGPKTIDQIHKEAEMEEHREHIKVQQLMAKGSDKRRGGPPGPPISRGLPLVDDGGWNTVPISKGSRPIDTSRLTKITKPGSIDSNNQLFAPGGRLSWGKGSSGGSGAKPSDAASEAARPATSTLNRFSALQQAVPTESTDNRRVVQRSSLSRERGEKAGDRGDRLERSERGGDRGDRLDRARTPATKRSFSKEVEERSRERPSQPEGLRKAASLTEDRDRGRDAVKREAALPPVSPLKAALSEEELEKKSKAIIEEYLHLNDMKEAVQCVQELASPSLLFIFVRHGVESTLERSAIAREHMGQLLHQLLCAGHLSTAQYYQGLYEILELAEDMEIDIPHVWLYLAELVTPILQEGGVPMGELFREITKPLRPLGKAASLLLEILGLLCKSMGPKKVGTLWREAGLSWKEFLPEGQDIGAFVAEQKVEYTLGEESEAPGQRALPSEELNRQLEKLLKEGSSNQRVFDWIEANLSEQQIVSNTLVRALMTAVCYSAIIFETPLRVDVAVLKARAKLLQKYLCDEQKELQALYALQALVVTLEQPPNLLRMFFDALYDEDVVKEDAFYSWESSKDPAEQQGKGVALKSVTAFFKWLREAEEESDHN
T1 sequence (P06730 2-217 partner limits assumed): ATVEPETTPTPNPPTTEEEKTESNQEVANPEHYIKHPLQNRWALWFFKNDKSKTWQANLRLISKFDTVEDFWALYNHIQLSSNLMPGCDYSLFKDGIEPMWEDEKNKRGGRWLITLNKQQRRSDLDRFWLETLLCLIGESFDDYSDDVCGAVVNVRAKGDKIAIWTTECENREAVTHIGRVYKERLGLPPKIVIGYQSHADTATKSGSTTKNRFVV

SMILES | enhancement of eIF4G1 binding to eIF4E-cap complex [1] | cells in S phase (HEK293T cells) | sub-G1 dead cells (HEK293T cells) | cells in G2/M phase of the cell cycle (HEK293T cells)
Cn1ccnc1S/C(=C/C=C(C#N)C#N)c1ccc(Cl)cc1 [i14G1-12] | no significant effect | reduction in S | elevation in sub-G1 dead cells | –
O=C(/C=C/Sc1ccc(C(F)(F)F)cn1)c1ccccc1 [i14G1-10] | 1.8 folds | reduction in S | elevation in sub-G1 dead cells | dramatic accumulation of cells in the G2/M phase

Source: patent publication US20250090510A1, “eIF4G1-eIF1 INHIBITORS AND USE THEREOF” (YEDA RESEARCH AND DEVELOPMENT CO. LTD., priority 2022, published 2025)
